Test results reported in patent publication US20140288056A1, “METHODS FOR NON-TOXIC TREATMENT FOR DRUG WITHDRAWAL” (DEMERX, INC., priority 2013, published 2014).

Key:
[1] = Human pharmacokinetic study, single oral dose, fasting healthy volunteers; type: in vivo; conditions: for mean AUC/24 hr / mean Cmax / mean AUC/24: fasting, serum
Description: In double blind studies, fasting healthy volunteers (6 per cohort) were treated once orally with a tablet of noribogaine HCl. In escalating cohorts, the volunteers received 3 mg, 10 mg, 30 mg or 60 mg noribogaine.

[2] = Plasma toxicokinetics in dogs, 14 day repeat dose study; type: in vivo, dog
Description: (§1) Noribogaine HCl was administered to groups of 4 male and 4 female dogs by single oral gavage daily for 14 days at doses of 0, 0.5, 1.0 and 5.0 mg/kg/day. An additional group of 4 male and 4 female dogs received either the vehicle control or 5.0 mg/kg/day for 14 days and were held for an additional 28 days after cessation of dosing to assess recovery from any potential drug-induced changes. The study was conducted under GLP guidelines and included comprehensive examinations of clinical signs, body weight, clinical pathology parameters, ophthalmologic examinations, ECG recordings and analyses of plasma for bioanalytical measurement of drug levels at appropriate intervals during the study. At the termination of the dosing phase and at the termination of the recovery phase, all dogs were subjected to a complete post-mortem examination including gross examination of major organs and histologic examination of an extensive list of tissues. Additional sections of brain were obtained from cerebrum, cerebellus, brain stem and spinal cord and examined histologically to evaluate potential effects on brain histopathology. In addition, these sections were examined with immunohistochemical stains for GFAP for evidence of gliosis and Calbindin for a more comprehensive examination of cerebellar Purkinje cells.

Sprague-Dawley rat = assay: Single dose toxicity in rats, oral gavage; type: in vivo
Description: The objective of this study was to determine the toxicity and toxicokinetic profile of noribogaine HCl following a single oral (gavage) administration in the Sprague-Dawley rat. A single dose of 100, 300 and 800 mg/kg (achieved with doses of 400 mg/kg 3 h +/−30 min apart because of the limitations of maximum dose formulation concentration). Five male rats/group were used. […] Hypoactivity, vocalization, chewing movements, changes in respiration/posture, salivation, stimuli sensitivity, tremors, twitches and penile erection occurred prior to death. […] The NOAEL was determined to be 100 mg/kg.

dogs [3] = assay: Fourteen day repeat dose toxicity in dogs, oral gavage; type: in vivo, dog
Description: The objective of this study was to determine the toxicity profile of noribogaine HCl given following oral (gavage) administration to dogs for 14 days according to the following Table 3 below:
as §1
The only target tissue identified in this study was the lacrimal gland of dogs receiving 5 mg/kg/day. […] There was an associated mononuclear infiltration in the draining mandibular lymph nodes of affected dogs in this dose group. […] There was no clear evidence of local irritation associated with drug treatment in these high dose dogs. […] While slight atrophy was still evident in the acinar cells of the gland after 28 days off drug, no evidence of continuing and ongoing degeneration or cellular infiltration was observed. The NOAEL in this study was 1 mg/kg/day based on the lacrimal gland changes at 5 mg/kg/day.

Sprague-Dawley rats = assay: Fourteen day repeat dose toxicity in rats, oral gavage; type: in vivo, rat
Description: This study was conducted to evaluate the toxicity profile of noribogaine-HCl following oral (gavage) administration to the rat for 14 days following Table 2 below:
Male and female Sprague-Dawley rats, 10/sex/group, were administered 0, 25, 50 or 100 mg/kg noribogaine HCl daily by single oral gavage for 14 days. An additional 5 rats/sex/group in the 0 (control) and 100 mg/kg groups were retained for a 28 day recovery period during which no drug was administered. Six rats/sex/group (3 rats/sex controls) were similarly dosed and sampled on study days 1 and 14 for analysis of noribogaine-HCl concentrations in the blood.

cynomolgus monkey = assay: Single dose toxicity in cynomolgus monkeys, oral gavage; type: in vivo
Description: The objective of the study was to determine the toxicity and toxicokinetic profile of noribogaine following oral (gavage) administration to the cynomolgus monkey. The test article was administered as follows in Table 1:
Parameters monitored on the study included: mortality, clinical signs and body weights. Blood samples were collected for TK evaluation. […] The single dose maximum tolerated dose (MTD) was determined to be greater than 160 mg/kg based on the parameters monitored during the study.

psychotomimetic effects = assay: Evaluation of psychotomimetic effects in an animal model; type: in vivo
drug-seeking behavior = assay: Animal studies in various addiction models; type: in vivo
dogs [4] = assay: Acute oral toxicity/TK study in dogs; type: in vivo, dog
various animal species = assay: Pre-clinical toxicity studies in various animal species; type: in vivo
Text: Given the signs of efficacy that noribogaine has shown, there is a need for a method to administer noribogaine in dosages that provide efficacy without leading to any significant deleterious clinical signs.

[5] = female dogs, Gr 2 0.5 mg/kg, D 1
[6] = female dogs, Gr 2 0.5 mg/kg, D 14
[7] = female dogs, Gr 3 1.0 mg/kg, D 1
[8] = female dogs, Gr 3 1.0 mg/kg, D 14
[9] = female dogs, Gr 4 5.0 mg/kg, D 1
[10] = female dogs, Gr 4 5.0 mg/kg, D 14
[11] = male dogs, Gr 2 0.5 mg/kg, D 14
[12] = male dogs, Gr 3 1.0 mg/kg, D 14
[13] = male dogs, Gr 4 5.0 mg/kg, D 14

In the case of `CC[C@@H]1C[C@H]2CC3c4[nH]c5ccc(O)cc5c4CCN(C2)C31.Cl` [noribogaine HCl], the Adverse effects ([1]; 3, 10, 30 or 60 mg single oral tablet) is reported as “no clinically relevant adverse effects were observed”, the “Dose linearity of parameters” value ([1]; 3 to 60 mg single oral dose) is reported as “linear” and the “Plasma level at 24 h post-dosing” value ([2]; Group 4 (5.0 mg/kg), male and female dogs, Days 1 and 14) is reported as “significant levels of noribogaine were still detected”. For the same compound, the Treatment related signs (Sprague-Dawley rat; 100 mg/kg) was “did not show any treatment related signs”, the “Rats with hypoactivity, vocalization, salivation, stimuli sensitivity, loss of limb function and lying on the cage floor” value (Sprague-Dawley rat; 300 mg/kg, day of treatment, persisted until Day 2) was 3/5 and the Mortality (Sprague-Dawley rat; 800 mg/kg (two doses of 400 mg/kg 3 h apart), single oral gavage, male rats) was “Mortality occurred in all male rats”. The “Time of mortality after administration of the second dose” value (Sprague-Dawley rat; 800 mg/kg group, after second dose of 400 mg/kg) was 2 to 3 h, the NOAEL (Sprague-Dawley rat; single oral dose, male rats) was 100 mg/kg and the Lacrimal gland changes (dogs [3]; 5 mg/kg/day for 14 days) was “slight to moderate atrophy and degeneration of the acinar cells”. The “Lacrimal gland change in recovery group” value (dogs [3]; 5 mg/kg/day, 28 days off drug) was “clear evidence of regeneration”, the “Adverse effect in clinical observations, body weights, clinical pathological parameters, ophthalmologic examinations, ECG recordings, or gross lesions at necropsy” value (dogs [3]; 0.5, 1.0 and 5.0 mg/kg/day for 14 days, dosing or recovery phase) was “No evidence of adverse effect” and the “Drug-induced effect in any other tissue including brain (histopathology, immunohistochemistry)” value (dogs [3]; 14 days oral) was “No evidence of drug-induced effect”. It also gave an NOAEL (dogs [3]; 14 days oral, based on lacrimal gland changes at 5 mg/kg/day) of 1 mg/kg/day, a Body weight change (Sprague-Dawley rats; 100 mg/kg high dose, females) of −2.6% and a Body weight change (Sprague-Dawley rats; 100 mg/kg high dose, males) of −5.5%. For the same compound, the Food consumption change (Sprague-Dawley rats; 100 mg/kg high dose, males and females) was −4.7%, the “Test article-related effects on mortality, clinical signs, ophthalmoscopy, hematology, coagulation parameters, clinical chemistry, urinalysis, gross necropsy or histopathology” value (Sprague-Dawley rats; 25, 50 or 100 mg/kg daily for 14 days) was “no test article-related effects” and the “Differences in the brain in sections stained for GFAP or Calbindin” value (Sprague-Dawley rats; 14 days oral) was “No treatment-related differences”. The NOAEL (Sprague-Dawley rats; 14 days oral, highest dose tested) was 100 mg/kg and the Liver weight (Sprague-Dawley rats; mid- and high dose groups (50 and 100 mg/kg), considered incidental) was “Minor increases”.
With `CC[C@H]1C[C@H]2C[C@H]3c4[nH]c5ccc(O)cc5c4CCN(C2)[C@@H]13` [noribogaine] the “Single dose maximum tolerated dose (MTD)” value (cynomolgus monkey) was “greater than 160 mg/kg”, the “Mortality or treatment related clinical signs” value (cynomolgus monkey; doses up to and including 160 mg/kg) was “No mortality or treatment related clinical signs were noted” and the Psychotomimetic effects (psychotomimetic effects) was “no activity”. For the same compound, the Drug-seeking behavior (drug-seeking behavior) was “significantly reduced”, the “Findings at the NOAEL dose” value (dogs [4]; 5 mg/kg oral) was “only transient reduction in food consumption in one dog” and the “Convulsions and other CNS-related clinical signs” value (dogs [4]; 10 mg/kg oral) was “occurred”. The “Onset of convulsions and CNS-related clinical signs after dosing” value (dogs [4]; 10 mg/kg oral) was 20 min, the Mortality (dogs [4]; 5 (n=2) or 10 (n=2) mg/kg oral) was “no mortality occurred” and the NOAEL (dogs [4]; single oral dose) was 5 mg/kg. For the same compound, the “Toxic effects of high doses” value (various animal species) was “convulsions and other CNS-related clinical signs, respiratory arrest and death”, the “mean AUC/24 hr” value ([1]; single dose 3 mg) was 3.1 ng/mL and the “mean Cmax” value ([1]; single dose 3 mg) was 5.2 ng/mL. For the same compound, the “mean AUC/24 hr” value ([1]; single dose 10 mg) was 10.6 ng/mL, the “mean Cmax” value ([1]; single dose 10 mg) was 14.5 ng/mL and the “mean AUC/24” value ([1]; single dose 30 mg) was 29.2 ng/mL. For the same compound, the “mean Cmax” value ([1]; single dose 30 mg) was 55.9 ng/mL, the “mean AUC/24” value ([1]; single dose 60 mg) was 61 ng/mL and the “mean Cmax” value ([1]; single dose 60 mg) was 116 ng/mL. For the same compound, the AUC0-24 h [2, 5] was 40.4 ng·h/mL, the AUC0-last [2, 5] was 31.5 ng·h/mL and the “AUC0-∞” value [2, 5] was 44.9 ng·h/mL. The Cmax [2, 5] was 25.3 ng/mL, the T1/2 [2, 5] was 1.0 h and the Tmax [2, 5] was 0.5 h. For the same compound, the AUC0-24 h [2, 6] was 55.0 ng·h/mL, the AUC0-last [2, 6] was 35.4 ng·h/mL and the “AUC0-∞” value [2, 6] was 45.7 ng·h/mL. For the same compound, the Cmax [2, 6] was 29.8 ng/mL, the T1/2 [2, 6] was 1.1 h and the Tmax [2, 6] was 1.0 h. The AUC0-24 h [2, 7] was 176.2 ng·h/mL, the AUC0-last [2, 7] was 148.9 ng·h/mL and the “AUC0-∞” value [2, 7] was 165.3 ng·h/mL. For the same compound, the Cmax [2, 7] was 68.5 ng/mL, the T1/2 [2, 7] was 1.4 h and the Tmax [2, 7] was 0.8 h. The AUC0-24 h [2, 8] was 203.7 ng·h/mL, the AUC0-last [2, 8] was 169.0 ng·h/mL and the “AUC0-∞” value [2, 8] was 197.0 ng·h/mL. The Cmax [2, 8] was 74.1 ng/mL, the T1/2 [2, 8] was 1.6 h and the Tmax [2, 8] was 0.5 h. The AUC0-24 h [2, 9] was 3367.9 ng·h/mL, the AUC0-last [2, 9] was 3367.9 ng·h/mL and the “AUC0-∞” value [2, 9] was 3425.7 ng·h/mL. The Cmax [2, 9] was 691 ng/mL, the T1/2 [2, 9] was 4.3 h and the Tmax [2, 9] was 0.6 h. For the same compound, the AUC0-24 h [2, 10] was 5951.2 ng·h/mL, the AUC0-last [2, 10] was 5951.2 ng·h/mL and the “AUC0-∞” value [2, 10] was 6283.2 ng·h/mL. The Cmax [2, 10] was 683 ng/mL, the T1/2 [2, 10] was 5.7 h and the Tmax [2, 10] was 0.6 h. The AUC0-24 h ([2]; male dogs, Gr 2 0.5 mg/kg, D 1) was 59.7 ng·h/mL, the AUC0-last ([2]; male dogs, Gr 2 0.5 mg/kg, D 1) was 46.6 ng·h/mL and the “AUC0-∞” value ([2]; male dogs, Gr 2 0.5 mg/kg, D 1) was 67.8 ng·h/mL. The Cmax ([2]; male dogs, Gr 2 0.5 mg/kg, D 1) was 28.8 ng/mL, the T1/2 ([2]; male dogs, Gr 2 0.5 mg/kg, D 1) was 1.3 h and the Tmax ([2]; male dogs, Gr 2 0.5 mg/kg, D 1) was 0.7 h. The AUC0-24 h [2, 11] was 64.5 ng·h/mL, the AUC0-last [2, 11] was 53.2 ng·h/mL and the “AUC0-∞” value [2, 11] was 68.2 ng·h/mL. It also gave a Cmax [2, 11] of 29.4 ng/mL, a T1/2 [2, 11] of 1.3 h and a Tmax [2, 11] of 0.7 h. For the same compound, the AUC0-24 h ([2]; male dogs, Gr 3 1.0 mg/kg, D 1) was 119.8 ng·h/mL, the AUC0-last ([2]; male dogs, Gr 3 1.0 mg/kg, D 1) was 102.5 ng·h/mL and the “AUC0-∞” value ([2]; male dogs, Gr 3 1.0 mg/kg, D 1) was 120.8 ng·h/mL. For the same compound, the Cmax ([2]; male dogs, Gr 3 1.0 mg/kg, D 1) was 58.6 ng/mL, the T1/2 ([2]; male dogs, Gr 3 1.0 mg/kg, D 1) was 1.2 h and the Tmax ([2]; male dogs, Gr 3 1.0 mg/kg, D 1) was 0.9 h. For the same compound, the AUC0-24 h [2, 12] was 210.4 ng·h/mL, the AUC0-last [2, 12] was 172.3 ng·h/mL and the “AUC0-∞” value [2, 12] was 195.7 ng·h/mL. It also gave a Cmax [2, 12] of 67.6 ng/mL, a T1/2 [2, 12] of 1.8 h and a Tmax [2, 12] of 0.8 h. For the same compound, the AUC0-24 h ([2]; male dogs, Gr 4 5.0 mg/kg, D 1) was 3515.0 ng·h/mL, the AUC0-last ([2]; male dogs, Gr 4 5.0 mg/kg, D 1) was 3515.0 ng·h/mL and the “AUC0-∞” value ([2]; male dogs, Gr 4 5.0 mg/kg, D 1) was 3630.5 ng·h/mL. It also gave a Cmax ([2]; male dogs, Gr 4 5.0 mg/kg, D 1) of 693 ng/mL, a T1/2 ([2]; male dogs, Gr 4 5.0 mg/kg, D 1) of 4.7 h and a Tmax ([2]; male dogs, Gr 4 5.0 mg/kg, D 1) of 0.6 h. For the same compound, the AUC0-24 h [2, 13] was 6403.3 ng·h/mL, the AUC0-last [2, 13] was 6403.3 ng·h/mL and the “AUC0-∞” value [2, 13] was 6961.4 ng·h/mL. For the same compound, the Cmax [2, 13] was 716 ng/mL, the T1/2 [2, 13] was 6.5 h and the Tmax [2, 13] was 0.9 h.
